These results are taken from ChEMBL document CHEMBL4371054, “Dual inhibition of Kif15 by oxindole and quinazolinedione chemical probes” (Bioorg Med Chem Lett, 2019).

Molecules are shown by their SMILES. Activity calls are given as the source filed them. No cut-off for these calls is given here.

Test [1] concerns the target T1, Kinesin-like protein KIFC1 (Homo sapiens) (UniProt Q9BW19).
T1 sequence (whole entry): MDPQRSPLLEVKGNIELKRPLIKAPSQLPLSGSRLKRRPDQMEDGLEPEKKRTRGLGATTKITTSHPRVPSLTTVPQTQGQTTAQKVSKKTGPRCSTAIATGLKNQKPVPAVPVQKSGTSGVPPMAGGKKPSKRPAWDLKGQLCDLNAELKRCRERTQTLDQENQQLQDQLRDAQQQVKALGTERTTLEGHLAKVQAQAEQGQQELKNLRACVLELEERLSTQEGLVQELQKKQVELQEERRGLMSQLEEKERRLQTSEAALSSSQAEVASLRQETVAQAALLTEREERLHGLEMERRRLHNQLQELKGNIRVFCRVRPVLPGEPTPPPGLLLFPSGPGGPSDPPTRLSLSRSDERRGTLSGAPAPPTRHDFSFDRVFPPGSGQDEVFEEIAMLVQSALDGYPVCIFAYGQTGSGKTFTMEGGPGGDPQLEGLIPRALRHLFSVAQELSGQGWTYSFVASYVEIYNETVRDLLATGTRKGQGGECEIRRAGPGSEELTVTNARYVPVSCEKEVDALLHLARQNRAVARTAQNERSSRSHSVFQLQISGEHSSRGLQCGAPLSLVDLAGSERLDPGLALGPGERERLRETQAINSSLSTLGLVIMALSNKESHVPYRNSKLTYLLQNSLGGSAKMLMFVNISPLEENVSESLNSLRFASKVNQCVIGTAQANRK
Nature of the test: Inhibition of recombinant His6-tagged HSET (unknown origin) assessed as reduction in Alexa-594 labelled microtubule gliding at 30 uM measured every 2 secs for 20 secs by epifluorescence microscopic analysis relative to control.

In test [2] the target is T2, Aurora kinase A (Homo sapiens) (UniProt O14965).
T2 sequence (whole entry): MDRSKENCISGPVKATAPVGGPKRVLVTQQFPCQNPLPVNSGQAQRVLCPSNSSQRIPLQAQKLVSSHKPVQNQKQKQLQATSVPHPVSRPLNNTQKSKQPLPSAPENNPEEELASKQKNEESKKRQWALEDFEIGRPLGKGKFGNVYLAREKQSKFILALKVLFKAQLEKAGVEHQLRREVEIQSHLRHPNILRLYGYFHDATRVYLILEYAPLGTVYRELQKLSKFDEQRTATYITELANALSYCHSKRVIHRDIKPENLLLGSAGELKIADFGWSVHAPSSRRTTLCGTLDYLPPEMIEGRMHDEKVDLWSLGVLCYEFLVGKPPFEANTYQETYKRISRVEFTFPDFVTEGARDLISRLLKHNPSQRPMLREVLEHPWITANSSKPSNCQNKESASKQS
Nature of the test: Inhibition of AURKA (unknown origin) at 1 uM relative to control.

Test [3] concerns the target T3, Kinesin-like protein KIF15 (Homo sapiens) (UniProt Q9NS87).
T3 sequence (whole entry): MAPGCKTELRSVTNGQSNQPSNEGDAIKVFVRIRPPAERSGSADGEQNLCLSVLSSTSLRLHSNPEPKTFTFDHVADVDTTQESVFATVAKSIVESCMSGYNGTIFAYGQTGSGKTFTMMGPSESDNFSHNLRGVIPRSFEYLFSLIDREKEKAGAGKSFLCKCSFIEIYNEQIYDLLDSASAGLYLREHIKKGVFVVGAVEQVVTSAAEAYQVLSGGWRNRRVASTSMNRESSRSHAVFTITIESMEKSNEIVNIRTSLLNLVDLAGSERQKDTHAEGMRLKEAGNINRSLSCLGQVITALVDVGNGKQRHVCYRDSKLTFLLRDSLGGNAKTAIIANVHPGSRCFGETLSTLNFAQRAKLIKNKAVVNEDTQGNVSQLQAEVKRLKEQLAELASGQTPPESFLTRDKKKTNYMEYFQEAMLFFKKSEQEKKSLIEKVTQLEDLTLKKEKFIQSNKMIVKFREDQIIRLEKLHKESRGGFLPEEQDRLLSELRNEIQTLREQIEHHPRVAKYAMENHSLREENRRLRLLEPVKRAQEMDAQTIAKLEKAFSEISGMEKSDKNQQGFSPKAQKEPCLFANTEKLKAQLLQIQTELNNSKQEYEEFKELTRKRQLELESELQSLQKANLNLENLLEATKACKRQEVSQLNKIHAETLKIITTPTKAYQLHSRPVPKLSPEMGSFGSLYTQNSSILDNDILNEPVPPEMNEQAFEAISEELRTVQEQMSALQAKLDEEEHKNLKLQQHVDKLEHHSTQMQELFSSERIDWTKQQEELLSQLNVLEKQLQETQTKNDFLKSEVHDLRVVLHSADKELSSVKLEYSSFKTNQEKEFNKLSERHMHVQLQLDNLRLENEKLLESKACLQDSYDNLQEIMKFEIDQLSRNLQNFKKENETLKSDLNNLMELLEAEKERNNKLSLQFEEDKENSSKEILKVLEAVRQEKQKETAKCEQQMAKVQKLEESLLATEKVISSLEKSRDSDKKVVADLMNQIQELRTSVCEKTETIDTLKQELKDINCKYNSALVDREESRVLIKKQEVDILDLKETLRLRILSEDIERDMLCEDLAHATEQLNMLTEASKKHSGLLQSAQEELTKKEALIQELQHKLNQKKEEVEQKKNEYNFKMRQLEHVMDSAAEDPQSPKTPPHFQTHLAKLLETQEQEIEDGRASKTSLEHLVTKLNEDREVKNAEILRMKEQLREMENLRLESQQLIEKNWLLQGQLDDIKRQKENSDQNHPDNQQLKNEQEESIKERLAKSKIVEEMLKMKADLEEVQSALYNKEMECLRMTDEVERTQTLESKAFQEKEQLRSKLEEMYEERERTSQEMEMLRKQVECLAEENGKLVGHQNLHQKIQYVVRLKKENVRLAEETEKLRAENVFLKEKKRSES
Briefly: Inhibition of Kif15 in K51-resistant human KIRC1 cells assessed as cells with monopolar spindles at 25 uM after 24 hrs by Hoechst 33342 staining based immunofluorescence microscopic analysis (reference value: 43 to 49%). The arrangement: scale not given: the % may be the effect or the level left.

The target in test [4] is T3, Kinesin-like protein KIF15 (Homo sapiens). Nature of the test: Inhibition of Kif15 in K51-resistant human KIRC1 cells assessed as increase in cells with monopolar spindles after 24 hrs by Hoechst 33342 staining based immunofluorescence microscopic analysis.
Test [5] has the same target. Briefly: Reversible inhibition of recombinant His6-tagged Kif15 (N700 residues) (unknown origin) expressed in HeLa cells assessed as reduction in Alexa-594 labelled microtubule gliding at 10 uM treated for 1 min followed by compound washout and measured every 2 secs for 1 min by epifluorescence microscopic analysis. The format is cell-based.
The target is the same in test [6]. Briefly: Inhibition of Kif15 in TP53-deficient human RPE1 cells assessed as cells with bipolar pre-anaphase microtubule structure at 25 uM after 24 hrs by Hoechst 33342 staining based immunofluorescence microscopic analysis (reference value: 90 to 94%). The arrangement: scale not given: the % may be the effect or the level left.
Test [7] has the same target. Nature of the test: Inhibition of Kif15 in TP53-deficient human RPE1 cells assessed as effect on spindle length at 25 uM after 24 hrs by Hoechst 33342 staining based immunofluorescence microscopic analysis (reference value: 11.4 +/- 0.2 um).

For orientation: inhibition means the change of the read-out against control, counted positive when it falls. In the case of `O=C1Nc2ccc(C(=O)c3ccco3)cc2/C1=C/c1cc(Cl)c(O)c(Cl)c1`, the inhibition in test [1] was 5.3%; in test [2], 67%; in test [4], “Dose-dependent effect”. The Activity in test [3] was 95%; in test [6], 84%. The inhibition result in test [5] was “Active”. Besides, the inhibition result in test [7] was “inactive”.
